One assay relates to Hela. In words: Clone formation experiment, Hela. The note with it: LARP7 overexpression in Hela vs control. It is filed as cell-based.
The subject of a further assay is MDA-MB-231. Description: Clone formation experiment, MDA-MB-231. The note with it: LARP7 overexpression in MDA-MB-231 vs control. The class given is cell-based.
Assay [1] concerns triple-negative breast cancer cells HCC1937. Description: CCK8 cell viability experiment, HCC1937. The class given is cell-based. To be noted: read-out: IC50 (the concentration of drug required for 50% inhibition).
Another assay has as its system HCC1937 xenograft tumor. In words: Radiotherapy and chemotherapy of xenograft tumor mice, HCC1937. It is filed as in vivo. To be noted: CDDP and radiation.
Assay [2] has as its system MDA-MB-231 xenograft tumor. Description: Radiotherapy and chemotherapy of xenograft tumor mice, MDA-MB-231. It is filed as in vivo. The note with it: CDDP and radiation.
For assay [3], the system named is triple-negative breast cancer cells MDA-MB-231. In words: CCK8 cell viability experiment, MDA-MB-231. It is filed as cell-based.
Assay [4] deals with cervical cancer cells Hela. In words: CCK8 cell viability experiment, Hela. It is filed as cell-based.

SMILES strings stand for the structures. Like-named read-outs stand apart in the source and are kept apart here.

Take `[NH2][Pt]([NH2])([Cl])[Cl]` [CDDP, cisplatin]: the “sensitivity of the cells by clone formation” value was “significantly increases cell sensitivity” in the assay with Hela and “significantly increases the sensitivity” with MDA-MB-231. Besides, the IC50 in assay [1] (HCC1937 control group (of LARP7 knock-down)) was found to be 102 ± 9.1 µM; in assay [1] (LARP7-knock-down HCC1937 cells), 185 ± 20.5 µM; in assay [3] (LARP7-overexpressing MDA-MB-231 cells), 76.3 ± 26.7 µM; in assay [3] (MDA-MB-231 control group (of LARP7 overexpression)), 232 ± 83.9 µM; in assay [4] (LARP7-knockdown (siLARP7, sgLARP7)), 55.8 ± 5.4 µM; in assay [4] (LARP7 overexpression) it was 19.1 ± 6.9 µM. The IC50 in assay [4] (control group of LARP7-knockdown) came out at 31.4 ± 6 µM; in assay [4] (control group of LARP7 overexpression), 39.6 ± 2.5 µM. For the same compound, the “sensitivity of in vivo tumor tissue” value with HCC1937 xenograft tumor (HCC1937 cells (high LARP7 expression)) is “sensitive”; in the assay on HCC1937 xenograft tumor (LARP7-knock-out HCC1937 cells (sgLARP7)) it was “less sensitive”; in assay [2] (MDA-MB-231 cells (low LARP7 expression)), “tolerant”; in assay [2] (MDA-MB-231 cells with artificial LARP7 overexpression), “significantly improved the sensitivity”.
For the compound `CO[C@@]12[C@H](COC(N)=O)C3=C(C(=O)C(C)=C(N)C3=O)N1C[C@@H]1N[C@@H]12` [MMS, mitomycin], the IC50 is 247 ± 38.1 µM in assay [1] (Homo sapiens, HCC1937, HCC1937 control group (of LARP7 knock-down)); 682 ± 123 µM in assay [1] (Homo sapiens, HCC1937, LARP7-knock-down HCC1937 cells); 262 ± 20.3 µM in assay [3] (Homo sapiens, MDA-MB-231, LARP7-overexpressing MDA-MB-231 cells); 451 ± 29.4 µM in assay [3] (Homo sapiens, MDA-MB-231, MDA-MB-231 control group (of LARP7 overexpression)); 123 ± 22 µM in assay [4] (Homo sapiens, HeLa, LARP7 overexpression); 210 ± 21.6 µM in assay [4] (Homo sapiens, HeLa, control group of LARP7 overexpression).

Values taken from patent publication US20210087640A1, “APPLICATION OF LARP7 GENE IN CANCER DIAGNOSIS AND TREATMENT” (SHANGHAI JIAO TONG UNIVERSITY, priority 2018, published 2021).
